From ChEMBL document CHEMBL4732174, “Discovery of 6-(7-Nitro-2,1,3-benzoxadiazol-4-ylthio)hexanol Derivatives as Glutathione Transferase Inhibitors with Favorable Selectivity and Tolerated Toxicity” (J Med Chem, 2021) come the findings set out here.

In series [1] the test system is 143B. The series can be described thus: Induction of cell cycle arrest in human 143B cells assessed as accumulation at G1 phase at 5 uM incubated for 48 hrs by propidium iodide staining based flow cytometry (reference value: 66.62 %). In kind it is functional.
The nature of series [2]: Toxicity in BALB/c nude mouse xenografted with human 143B cells assessed as cellular inflammation in kidney at 5 to 20 mg/kg, po administered once daily for 28 consecutive days by hematoxylin-eosin staining based assay. The format is organism-based. The settings on record: in vivo, 672 h, dose 5-20 mg/kg, time 28 day.
Series [3] can be described thus: Toxicity in BALB/c nude mouse xenografted with human 143B cells assessed as body weight loss at 5 mg/kg, po administered once daily for 28 consecutive days and measured every 3 days. The format is organism-based. As to conditions: in vivo, 672 h, time 28 day.
The nature of series [4]: Toxicity in BALB/c nude mouse xenografted with human 143B cells assessed as necrosis in spleen at 5 to 20 mg/kg, po administered once daily for 28 consecutive days by hematoxylin-eosin staining based assay. The settings on record: in vivo, 672 h, dose 5-20 mg/kg, time 28 day. In kind it is organism-based.
The subject of series [5] is 143B. As to the kind of experiment: Induction of cell cycle arrest in human 143B cells assessed as accumulation at S phase at 5 uM incubated for 48 hrs by propidium iodide staining based flow cytometry (reference value: 32.03 %). The format is functional.
In series [6] the test system is 143B. The series can be described thus: Induction of cell cycle arrest in human 143B cells assessed as accumulation at S phase at 2.5 uM incubated for 48 hrs by propidium iodide staining based flow cytometry (reference value: 32.03 %). The format is functional.
Series [7] can be described thus: in vivo. As to conditions: Sprague-Dawley, rat, po, 80 mg/kg.
Description: AUC (0 to t) in Sprague-Dawley rat at 80 mg/kg, po administered as single dose measured upto 48 hrs by LC-MS/MS analysis
A further series concerns HOS. As to the kind of experiment: Antiproliferative activity against human HOS cells assessed as inhibition of cell proliferation incubated for 72 hrs by MTT assay. The format is functional, cell-based.
In series [8] the target is Glutathione S-transferase P (Homo sapiens, UniProt P09211). The series can be described thus: Time dependent inhibition of GSTP1-1 (unknown origin) assessed as inhibition constant using reduced GSH and CDNB as substrate by spectrophotometric method.
The nature of series [9]: Toxicity in BALB/c nude mouse xenografted with human 143B cells assessed as cellular inflammation in liver at 5 to 20 mg/kg, po administered once daily for 28 consecutive days by hematoxylin-eosin staining based assay. In kind it is organism-based. As to conditions: in vivo, 672 h, dose 5-20 mg/kg, time 28 day.
A short description of series [10]: Toxicity in BALB/c nude mouse xenografted with human 143B cells assessed as cellular inflammation in spleen at 5 to 20 mg/kg, po administered once daily for 28 consecutive days by hematoxylin-eosin staining based assay. In kind it is organism-based. The settings on record: in vivo, 672 h, dose 5-20 mg/kg, time 28 day.
For series [11] the following is noted: rat, in vivo, po, 80 mg/kg, 48 h.
Description: AUC (0 to infinity) in Sprague-Dawley rat at 80 mg/kg, po administered as single dose measured upto 48 hrs by LC-MS/MS analysis
Series [12] concerns 143B. The series can be described thus: Induction of apoptosis in human 143B cells assessed as apoptotic cells at 10 uM incubated for 24 hrs by Annexin V-FITC/PI double staining based flow cytometric analysis (reference value: 3.9%). The format is functional.
The nature of series [13]: Volume of distribution in Sprague-Dawley rat at 80 mg/kg, po administered as single dose measured upto 48 hrs by LC-MS/MS analysis. The settings on record: in vivo.
A further series has as its system L02. The series can be described thus: Cytotoxicity against human L02 cells assessed as reduction in cell viability incubated for 72 hrs by MTT assay. The format is cell-based. As to conditions: L02, 72 h.
A short description of series [14]: in vivo. The settings on record: Sprague-Dawley, rat, po, 80 mg/kg. The source holds these as a separate data set.
Description: Terminal half life in Sprague-Dawley rat at 80 mg/kg, po administered as single dose measured upto 48 hrs by LC-MS/MS analysis
In series [15] the test system is 143B. As to the kind of experiment: Induction of cell cycle arrest in human 143B cells assessed as accumulation at G2 phase at 2.5 uM incubated for 48 hrs by propidium iodide staining based flow cytometry (reference value: 1.35 %). The format is functional.
Series [16] relates to 143B. The series can be described thus: Antitumor activity against human 143B cells xenografted in BALB/c nude mouse assessed as tumor growth inhibition at 20 mg/kg, po administered once daily for 28 consecutive days relative to control. The format is functional. The settings on record: 672 h, time 28 day, read-out: TGI.
Series [17] in a line: Toxicity in BALB/c nude mouse xenografted with human 143B cells assessed as kidney edema at 5 to 20 mg/kg, po administered once daily for 28 consecutive days by hematoxylin-eosin staining based assay. In kind it is organism-based. As to conditions: in vivo, 672 h, dose 5-20 mg/kg, time 28 day.
Series [18] addresses T1, Glutathione S-transferase Mu 2 (Homo sapiens, UniProt P28161).
T1 sequence (P28161 whole entry): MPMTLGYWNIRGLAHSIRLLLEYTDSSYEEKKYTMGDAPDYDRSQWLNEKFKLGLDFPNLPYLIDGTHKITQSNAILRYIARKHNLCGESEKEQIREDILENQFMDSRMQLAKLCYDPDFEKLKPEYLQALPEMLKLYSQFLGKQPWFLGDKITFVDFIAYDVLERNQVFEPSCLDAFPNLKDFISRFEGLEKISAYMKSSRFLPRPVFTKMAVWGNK
The series can be described thus: Inhibition of GSTM2-2 (unknown origin) using reduced GSH and CDNB as substrate incubated for 10 mins followed by substrate addition by microplate reader analysis.

The conditions of series [19]: rat, in vivo, po, 80 mg/kg, 48 h. This is another data set of the same source.
Description: Plasma clearance in Sprague-Dawley rat at 80 mg/kg, po administered as single dose measured upto 48 hrs by LC-MS/MS analysis
A short description of series [20]: Toxicity in BALB/c nude mouse xenografted with human 143B cells assessed as spleen edema at 5 to 20 mg/kg, po administered once daily for 28 consecutive days by hematoxylin-eosin staining based assay. In kind it is organism-based. The settings on record: in vivo, 672 h, dose 5-20 mg/kg, time 28 day.
For the next series, the target named is T2, liver carboxylesterase (Sus scrofa, UniProt Q29550).
T2 sequence (Q29550 whole entry): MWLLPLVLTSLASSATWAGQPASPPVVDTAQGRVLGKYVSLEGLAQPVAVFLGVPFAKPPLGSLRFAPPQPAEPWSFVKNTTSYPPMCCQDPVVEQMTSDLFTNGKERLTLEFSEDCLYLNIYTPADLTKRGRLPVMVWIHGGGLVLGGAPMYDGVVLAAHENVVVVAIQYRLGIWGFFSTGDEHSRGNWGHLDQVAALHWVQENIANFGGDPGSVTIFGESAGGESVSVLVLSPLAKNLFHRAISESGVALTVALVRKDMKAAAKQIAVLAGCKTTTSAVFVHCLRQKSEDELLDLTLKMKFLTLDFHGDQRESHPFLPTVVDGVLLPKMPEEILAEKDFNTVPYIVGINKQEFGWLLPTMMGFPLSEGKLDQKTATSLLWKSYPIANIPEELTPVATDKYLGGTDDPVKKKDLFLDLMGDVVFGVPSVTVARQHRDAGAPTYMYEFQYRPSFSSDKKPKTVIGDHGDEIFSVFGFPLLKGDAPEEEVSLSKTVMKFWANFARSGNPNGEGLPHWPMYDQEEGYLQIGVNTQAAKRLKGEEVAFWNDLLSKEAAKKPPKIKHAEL
The series can be described thus: Stability of the compound assessed as pig liver carboxylesterase-mediated compound hydrolysis at 10 mM measured after 24 hrs by HPLC analysis. As to conditions: read-out: Drug degradation. In kind it is ADME.

Glutathione S-transferase P, sequence (P09211 whole entry): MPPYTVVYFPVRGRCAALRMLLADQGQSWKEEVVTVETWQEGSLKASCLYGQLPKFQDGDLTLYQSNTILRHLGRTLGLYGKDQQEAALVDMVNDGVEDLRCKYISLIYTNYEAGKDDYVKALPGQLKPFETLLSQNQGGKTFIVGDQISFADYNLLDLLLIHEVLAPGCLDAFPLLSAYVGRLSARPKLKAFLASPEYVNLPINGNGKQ

Turning to `CN(C)CCCNC(=O)CCC(=O)OCCCCCCSc1ccc([N+](=O)[O-])c2nonc12`, the Activity in the series with 143B [1] is reported as 49.82%; in [2], “Non-Toxic”; in series [3], “Non-Toxic”; in [4] it was “Non-Toxic”; with 143B [5] it was 34.94%; with 143B [6], 40.75%. Moreover, the Activity result in series [9] is recorded as “Non-Toxic”; in series [10] it was “Non-Toxic”; with 143B [12], 84%; in the series on 143B [15], 9.46%; in [17] it was “Non-Toxic”; in [20] it was “Non-Toxic”. The AUC(0-t) at 48 h in the series “in vivo [7]” was found to be 6420 ng·h/mL. The IC50 turned out to be 1850 nM in the series with HOS, 4230 nM in the series on L02 and 90 nM in series [18]. In addition, in series [8], the Ki stood at 170 nM. This molecule displayed an AUC in [11] of 6514.48 ng·h/mL. Besides, the Vd in [13] amounted to 7.62 L/kg. The half-life at 48 h in the series “in vivo [14]” is 7.28 h. The inhibition in vivo at 20 mg/kg in the series with 143B [16] came out at 74.5%. This molecule gave a CL in series [19] of 64.2 mL/min/kg. Besides, the metabolised at 24 h, 10000 µM on liver carboxylesterase was found to be 45%.
